A word on the IC50: it is the concentration that inhibits the measured activity by half.

Assay type in all cases: cell-based
The target of one experiment is T1, Ba/F3 cells with EGFR WT (Homo sapiens, UniProt P00533).
T1 construct: expressed in transfected cells; host or cells: Ba/F3 (murine pro-B cells), retroviral transduction, puromycin selection, maintained with EGF
As to the kind of experiment: EGFR activity: Ba/F3 cell viability (CellTiter-Glo, 72 h), EGFR WT. Conditions: read-out: BaF3 WT IC50.

Experiment [1] addresses T2, Ba/F3 cells with EGFR exon 20 NPG Ins D770_N771 (Homo sapiens, UniProt P00533, INS770NPG).
T2 construct: expressed in transfected cells; host or cells: Ba/F3 (murine pro-B cells), retroviral transduction, puromycin selection, IL3-independent pool
Kind of experiment: EGFR activity: Ba/F3 cell viability (CellTiter-Glo, 72 h), EGFR exon 20 NPG insertion. The following applies: EGFR exon 20 NPG Ins D770_N771, cell viability, read-out: BaF3 NPG IC50. For orientation: ATP-based viability assays read luminescence as a measure of living cells.

Experiment [2] has as its target T3, Ba/F3 cells with EGFR exon 20 ASV Ins V769_D770 (Homo sapiens, UniProt P00533, INS769ASV).
T3 construct: expressed in transfected cells; host or cells: Ba/F3 (murine pro-B cells), retroviral transduction, puromycin selection, IL3-independent pool
Kind of experiment: EGFR activity: Ba/F3 cell viability (CellTiter-Glo, 72 h), EGFR exon 20 ASV insertion. The following applies: EGFR exon 20 ASV Ins V769_D770, cell viability, read-out: BaF3 ASV IC50.

For experiment [3], the target named is T4, pEGFR in Ba/F3 cells expressing EGFR exon 20 NPG Ins D770_N771 (Homo sapiens, UniProt P00533, INS770NPG).
T4 construct: expressed in transfected cells; host or cells: Ba/F3 (murine pro-B cells), retroviral transduction, puromycin selection, IL3-independent pool
As to the kind of experiment: Inhibitor activity on EGFR phosphorylation (pEGFR AlphaLISA, 2 h), Ba/F3 EGFR exon 20 NPG insertion. The following applies: Ba/F3 EGFR exon 20 NPG Ins D770_N771.

The target in the next experiment is T5, pEGFR in CUTO14 cells (Homo sapiens, UniProt P00533, DUP767-769).
T5 construct: endogenous in cells; host or cells: CUTO14 cells
Kind of experiment: Inhibitor activity on EGFR phosphorylation (pEGFR AlphaLISA, 2 h), CUTO14 cells. On the procedure:
CUTO14 cells were obtained from Dr. Robert C. Doebele at the University of Colorado.
Shake 350 rpm for 1 hr in the dark • 3.4 Prepare donor mix under low light conditions prior to use. Dispense 5 μL of donor mix to all the wells. Mix well on the shaker, seal and wrap in aluminum foil and incubate 1.5 hrs at room temperature in the dark • 3.5 Transfer 18.5 μL mixture to OptiPlate 384, and read using an Envision.
For orientation: Alpha assays give light when donor and acceptor beads are brought close together.

Some results are limits rather than exact numbers.

T5 sequence (P00533 with tags, fused parts or gaps DUP767-769): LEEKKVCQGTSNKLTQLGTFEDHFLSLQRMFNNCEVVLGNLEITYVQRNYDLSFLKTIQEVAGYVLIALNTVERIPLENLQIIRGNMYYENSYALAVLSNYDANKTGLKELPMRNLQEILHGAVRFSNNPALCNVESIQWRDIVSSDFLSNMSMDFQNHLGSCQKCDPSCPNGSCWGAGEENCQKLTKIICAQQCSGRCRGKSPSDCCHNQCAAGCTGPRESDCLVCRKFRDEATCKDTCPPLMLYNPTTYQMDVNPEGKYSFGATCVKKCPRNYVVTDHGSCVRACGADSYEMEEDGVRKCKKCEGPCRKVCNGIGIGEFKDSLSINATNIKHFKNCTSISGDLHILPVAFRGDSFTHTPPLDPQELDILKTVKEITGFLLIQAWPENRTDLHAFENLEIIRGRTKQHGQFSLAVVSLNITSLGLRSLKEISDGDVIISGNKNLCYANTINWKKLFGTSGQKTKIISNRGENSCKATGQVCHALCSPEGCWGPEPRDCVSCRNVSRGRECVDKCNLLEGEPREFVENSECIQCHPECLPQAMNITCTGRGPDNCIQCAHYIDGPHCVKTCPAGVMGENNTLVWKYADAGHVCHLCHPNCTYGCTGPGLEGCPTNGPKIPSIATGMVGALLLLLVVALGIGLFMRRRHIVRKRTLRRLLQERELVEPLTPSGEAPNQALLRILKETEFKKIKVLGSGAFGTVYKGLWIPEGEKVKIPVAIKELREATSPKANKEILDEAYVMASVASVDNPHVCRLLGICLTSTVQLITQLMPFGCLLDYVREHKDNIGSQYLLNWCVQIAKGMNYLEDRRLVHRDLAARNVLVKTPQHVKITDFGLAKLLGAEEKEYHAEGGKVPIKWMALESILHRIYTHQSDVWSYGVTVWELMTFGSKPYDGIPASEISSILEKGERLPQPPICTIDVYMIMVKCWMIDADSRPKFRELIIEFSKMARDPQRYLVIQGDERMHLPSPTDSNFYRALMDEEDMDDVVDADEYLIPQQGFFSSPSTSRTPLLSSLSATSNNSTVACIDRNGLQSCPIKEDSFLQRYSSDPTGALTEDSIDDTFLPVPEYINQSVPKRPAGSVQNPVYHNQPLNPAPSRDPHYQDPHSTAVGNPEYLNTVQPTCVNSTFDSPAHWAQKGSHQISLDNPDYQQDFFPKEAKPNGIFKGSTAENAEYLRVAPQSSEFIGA
T3 sequence (P00533 with tags, fused parts or gaps INS769ASV): as the sequence (P00533 with tags, fused parts or gaps DUP767-769) above
T2 sequence (P00533 with tags, fused parts or gaps INS770NPG): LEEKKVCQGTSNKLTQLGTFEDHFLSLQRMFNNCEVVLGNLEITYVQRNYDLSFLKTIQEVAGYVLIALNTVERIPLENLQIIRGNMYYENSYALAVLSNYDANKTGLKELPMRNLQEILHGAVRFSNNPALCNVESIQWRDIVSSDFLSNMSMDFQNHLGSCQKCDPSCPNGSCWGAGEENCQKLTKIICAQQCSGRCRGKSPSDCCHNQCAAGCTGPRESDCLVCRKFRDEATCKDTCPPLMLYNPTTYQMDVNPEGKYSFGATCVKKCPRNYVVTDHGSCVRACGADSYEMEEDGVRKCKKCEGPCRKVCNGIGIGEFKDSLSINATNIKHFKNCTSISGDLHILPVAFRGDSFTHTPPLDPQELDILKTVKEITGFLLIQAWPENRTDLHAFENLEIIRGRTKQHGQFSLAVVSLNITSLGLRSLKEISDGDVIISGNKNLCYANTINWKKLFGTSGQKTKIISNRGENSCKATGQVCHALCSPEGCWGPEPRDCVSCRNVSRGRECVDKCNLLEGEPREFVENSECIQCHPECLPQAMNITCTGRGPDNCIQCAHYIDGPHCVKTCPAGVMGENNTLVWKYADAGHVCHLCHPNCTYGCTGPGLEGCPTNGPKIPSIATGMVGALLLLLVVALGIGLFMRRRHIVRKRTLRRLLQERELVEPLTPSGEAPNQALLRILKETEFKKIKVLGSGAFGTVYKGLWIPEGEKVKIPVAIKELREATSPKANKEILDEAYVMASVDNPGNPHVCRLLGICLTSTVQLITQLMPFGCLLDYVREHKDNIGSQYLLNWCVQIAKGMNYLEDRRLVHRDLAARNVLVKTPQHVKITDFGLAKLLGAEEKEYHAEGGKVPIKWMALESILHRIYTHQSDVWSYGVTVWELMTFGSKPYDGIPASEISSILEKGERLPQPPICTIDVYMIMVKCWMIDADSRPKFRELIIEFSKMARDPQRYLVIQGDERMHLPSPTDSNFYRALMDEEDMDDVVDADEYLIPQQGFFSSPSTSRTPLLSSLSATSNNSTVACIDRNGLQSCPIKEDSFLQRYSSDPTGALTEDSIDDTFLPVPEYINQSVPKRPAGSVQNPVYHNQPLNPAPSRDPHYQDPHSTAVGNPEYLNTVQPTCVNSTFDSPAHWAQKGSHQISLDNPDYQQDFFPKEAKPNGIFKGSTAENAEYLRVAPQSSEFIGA
T4 sequence (P00533 with tags, fused parts or gaps INS770NPG): as above

In the case of `C=CC(=O)N1CCC[C@H]1COc1cnccc1-c1[nH]c2c(c1Nc1cccc(F)c1CC)C(=O)NCC2` [compound 211, 3-[(2-ethyl-3-fluorophenyl)amino]-2-(3-{[(2S)-1-(prop-2-enoyl)pyrrolidin-2-yl]methoxy}pyridin-4-yl)-1H,5H,6H,7H-pyrrolo[3,2-c] pyridin-4-one], the IC50 (on Ba/F3 cells with EGFR WT; in experiment [1]; in experiment [2]; in experiment [3]) was below 100 nM throughout.

Take `C=CC(=O)NC(C)(C)C#Cc1cnccc1-c1[nH]c2c(c1Nc1cccc(Cl)c1OC)C(=O)NCC2` [compound 492, N-[4-(4-{3-[(3-chloro-2-methoxyphenyl)amino]-4-oxo-1H,5H,6H,7H-pyrrolo[3,2-c]pyridin-2-yl}pyridin-3-yl)-2-methylbut-3-yn-2-yl]prop-2-enamide]: the concentration for half-maximal inhibition (IC50) (in experiment [3]; against pEGFR in CUTO14 cells) was below 100 nM throughout.

Consider `COc1c(Cl)cccc1Nc1c(-c2ccncc2OC[C@H]2CCCN2S(C)(=O)=O)[nH]c2c1C(=O)NCC2` [Compound 142b, 3-[(3-chloro-2-methoxyphenyl)amino]-2-(3-[[(2R)-1-methanesulfonylpyrrolidin-2-yl]methoxy]pyridin-4-yl)-1H,5H,6H,7H-pyrrolo[3,2-c]pyridin-4-one], for which the IC50 at Ba/F3 cells with EGFR WT is 100 to 1000 nM; in experiment [1], below 100 nM; in experiment [2] it was below 100 nM; in experiment [3], below 100 nM.

As for `CC#CC(=O)N1CC[C@@H]1COc1cnccc1-c1[nH]c2c(c1Nc1cccc(Cl)c1OC)C(=O)NCC2` [compound 227], the IC50 on Ba/F3 cells with EGFR WT is 100 to 1000 nM; in experiment [1] it was below 100 nM; in experiment [2] it was below 100 nM; in experiment [3] it was below 100 nM; against pEGFR in CUTO14 cells, below 100 nM.

As for `CCC(=O)N1CCC[C@@H]1COc1cnccc1-c1[nH]c2c(c1Nc1cccc(Cl)c1OC)C(=O)NCC2` [Compound 470, 3-[(3-chloro-2-methoxyphenyl)amino]-2-(3-[[(2R)-1-propanoylpyrrolidin-2-yl]methoxy]pyridin-4-yl)-1H,5H,6H,7H-pyrrolo[3,2-c]pyridin-4-one], the IC50 at Ba/F3 cells with EGFR WT was above 1000 nM; in experiment [1] it was above 1000 nM; in experiment [2] it was above 1000 nM; in experiment [3] it was 100 to 1000 nM.

`COc1c(F)cccc1Nc1c(-c2ccncc2OCc2ccccn2)[nH]c2c1C(=O)NCC2` [Compound 472, 3-[(3-fluoro-2-methoxyphenyl)amino]-2-[3-(pyridin-2-ylmethoxy)pyridin-4-yl]-1H,5H,6H,7H-pyrrolo[3,2-c]pyridin-4-one]: the IC50 (on Ba/F3 cells with EGFR WT; in experiment [1]; in experiment [2]; in experiment [3]) was below 100 nM throughout.

In the case of `COc1cccnc1COc1cnccc1-c1[nH]c2c(c1Nc1cccc(F)c1OC)C(=O)NCC2` [Compound 476, 3-[(3-fluoro-2-methoxyphenyl)amino]-2-[3-[(3-methoxypyridin-2-yl)methoxy]pyridin-4-yl]-1H,5H,6H,7H-pyrrolo[3,2-c]pyridin-4-one], the IC50 at Ba/F3 cells with EGFR WT was 100 to 1000 nM; in experiment [1] it was below 100 nM; in experiment [2], below 100 nM; in experiment [3] it was below 100 nM.

On to `COc1c(Cl)cccc1Nc1c(-c2ccncc2C#C[C@@H]2CN(C)CCO2)[nH]c2c1C(=O)NCC2` [compound 496], for which the IC50 on Ba/F3 cells with EGFR WT is above 1000 nM; in experiment [1], below 100 nM; in experiment [2], below 100 nM; in experiment [3], below 100 nM.

In the case of `C=CC(=O)N1CCC[C@H]1COc1cnccc1-c1[nH]c2c(c1Nc1cccc(Cl)c1OC)C(=O)NCC2` [Compound 138b, (S)-2-(3-((1-acryloylpyrrolidin-2-yl)methoxy)pyridin-4-yl)-3-((3-chloro-2-methoxyphenyl)amino)-1,5,6,7-tetrahydro-4H-pyrrolo[3,2-c]pyridin-4-one], the IC50 on Ba/F3 cells with EGFR WT was 100 to 1000 nM; in experiment [1] it was below 100 nM; in experiment [2], below 100 nM; in experiment [3], below 100 nM.

As for `C=C(F)C(=O)N1CC[C@@H]1COc1cnccc1-c1[nH]c2c(c1Nc1cccc(Cl)c1OC)C(=O)NCC2` [compound 226, 3-[(3-chloro-2-methoxyphenyl)amino]-2-(3-{[(2R)-1-(2-fluoroprop-2-enoyl)azetidin-2-yl]methoxy}pyridin-4-yl)-1H,5H,6H,7H-pyrrolo[3,2-c]pyridin-4-one], the IC50 on Ba/F3 cells with EGFR WT was 100 to 1000 nM; in experiment [1] it was below 100 nM; in experiment [2], below 100 nM; in experiment [3], below 100 nM.

Consider `C=CC(=O)NC(C)(C)C#Cc1cnccc1-c1[nH]c2c(c1Nc1cccc(F)c1OC)C(=O)NCC2` [compound 258, N-[4-(4-{3-[(3-fluoro-2-methoxyphenyl)amino]-4-oxo-1H,5H,6H,7H-pyrrolo[3,2-c]pyridin-2-yl}pyridin-3-yl)-2-methylbut-3-yn-2-yl]prop-2-enamide], for which the IC50 (in experiment [3]; at pEGFR in CUTO14 cells) was below 100 nM in each case.

As for `COc1c(Cl)cccc1Nc1c(-c2ccncc2C#CC(C)(C)OC)[nH]c2c1C(=O)NCC2` [Compound 188, 3-((3-chloro-2-methoxyphenyl)amino)-2-(3-(3-methoxy-3-methylbut-1-yn-1-yl)pyridin-4-yl)-1,5,6,7-tetrahydro-4H-pyrrolo[3,2-c]pyridin-4-one], the IC50 at Ba/F3 cells with EGFR WT is below 100 nM; in experiment [1], below 100 nM; in experiment [2], 100 to 1000 nM; in experiment [3], below 100 nM.

With `C=CC(=O)N1CCC[C@]1(C)C#Cc1cnccc1-c1[nH]c2c(c1Nc1cccc(F)c1OC)C(=O)NCC2` [compound 245, 3-[(3-fluoro-2-methoxyphenyl)amino]-2-(3-{2-[(2R)-2-methyl-1-(prop-2-enoyl)pyrrolidin-2-yl]ethynyl}pyridin-4-yl)-1H,5H,6H,7H-pyrrolo[3,2-c]pyridin-4-one], the IC50 (in experiment [3]; against pEGFR in CUTO14 cells) was below 100 nM each time.

With `COc1c(F)cccc1Nc1c(-c2ccncc2OCC2CCc3nccn32)[nH]c2c1C(=O)NCC2` (centres unmarked) [Compound 128, 2-(3-((6,7-dihydro-5H-pyrrolo[1,2-a]imidazol-5-yl)methoxy)pyridin-4-yl)-3-((3-fluoro-2-methoxyphenyl)amino)-1,5,6,7-tetrahydro-4H-pyrrolo[3,2-c]pyridin-4-one], the IC50 (on Ba/F3 cells with EGFR WT; in experiment [1]; in experiment [3]) was above 1000 nM each time.

Consider `COc1c(F)cccc1Nc1c(-c2ccncc2OCc2nnc3n2CCC3)[nH]c2c1C(=O)NCC2` [Compound 131, 3-[(3-fluoro-2-methoxyphenyl)amino]-2-(3-[5H,6H,7H-pyrrolo[2,1-c][1,2,4]triazol-3-ylmethoxy]pyridin-4-yl)-1H,5H,6H,7H-pyrrolo[3,2-c]pyridin-4-one], for which the 50% inhibitory concentration (IC50) (at Ba/F3 cells with EGFR WT; in experiment [1]; in experiment [3]) was above 1000 nM each time.

As for `COc1c(F)cccc1Nc1c(-c2ccncc2OCC2CCc3ncnn32)[nH]c2c1C(=O)NCC2` (centres unmarked) [compound 133], the IC50 at Ba/F3 cells with EGFR WT is above 1000 nM; in experiment [1], 100 to 1000 nM; in experiment [3], below 100 nM.

Take `CCC(=O)N1CCC[C@H]1COc1cnccc1-c1[nH]c2c(c1Nc1cccc(Cl)c1OC)C(=O)NCC2` [Compound 139, (S)-3-((3-chloro-2-methoxyphenyl)amino)-2-(3-((1-propionylpyrrolidin-2-yl)methoxy)pyridin-4-yl)-1,5,6,7-tetrahydro-4H-pyrrolo[3,2-c]pyridin-4-one]: the IC50 on Ba/F3 cells with EGFR WT is above 1000 nM; in experiment [1], above 1000 nM; in experiment [2] it was above 1000 nM; in experiment [3], 100 to 1000 nM.

As to `COc1c(F)cccc1Nc1c(-c2ccncc2OCc2nccn2C)[nH]c2c1C(=O)NCC2` [Compound 482, 3-[(3-fluoro-2-methoxyphenyl)amino]-2-[3-[(1-methylimidazol-2-yl)methoxy]pyridin-4-yl]-1H,5H,6H,7H-pyrrolo[3,2-c]pyridin-4-one], the values for the IC50 (at Ba/F3 cells with EGFR WT; in experiment [1]; in experiment [3]) were above 1000 nM, 100 to 1000 nM and below 100 nM, respectively.

For the compound `C=CC(=O)N1CCCC[C@@H]1COc1cnccc1-c1[nH]c2c(c1Nc1cccc(F)c1C)C(=O)NCC2` [Compound 468, 3-[(3-fluoro-2-methylphenyl)amino]-2-(3-[[(2R)-1-(prop-2-enoyl)piperidin-2-yl]methoxy]pyridin-4-yl)-1H,5H,6H,7H-pyrrolo[3,2-c]pyridin-4-one], the IC50 on Ba/F3 cells with EGFR WT was 100 to 1000 nM; in experiment [1], 100 to 1000 nM; in experiment [2] it was 100 to 1000 nM; in experiment [3], below 100 nM.

Take `C=CC(=O)N1CCC[C@@H]1COc1cnccc1-c1[nH]c2c(c1Nc1cccc(Cl)c1OC)C(=O)NCC2` [Compound 138a, 3-[(3-chloro-2-methoxyphenyl)amino]-2-(3-[[(2R)-1-(prop-2-enoyl)pyrrolidin-2-yl]methoxy]pyridin-4-yl)-1H,5H,6H,7H-pyrrolo[3,2-c]pyridin-4-one]: the IC50 on Ba/F3 cells with EGFR WT is 100 to 1000 nM; in experiment [1] it was below 100 nM; in experiment [2], below 100 nM; in experiment [3], below 100 nM.

The values are drawn from patent US20230364070A1, “PYRROLO[3,2-C]PYRIDIN-4-ONE DERIVATIVES USEFUL IN THE TREATMENT OF CANCER” (Scorpion Therapeutics, Inc., priority 2020, published 2023).
